Data published in patent US5126057A, “Disinfecting with N,N'-dihaloimidazolidin-4-ones” (Auburn Research Foundation, priority 1991, dated 1992).
Converted amounts (≈) assume the structure as drawn. Blank lines part the entries; values can stand above or below the compound they belong to.

What was measured:
Type in all cases: physicochemical
[1] = Laboratory stability in halogen demand-free water (DFW), iodometric titration; conditions: for Percent Chlorine Remaining: DFW, 22° C.
Description: The stability of 1,3-dichloro-2,2,5,5-tetramethylimidazolidin-4-one (Compound 1) in halogen demand-free water was determined at 22° C. and pH values of 4.5, 7.0, and 9.5, and the results were compared to those for free chlorine as supplied by calcium hypochlorite. The demand-free water (DFW) was prepared by chlorination of distilled, deionized water buffered to the appropriate pH followed by dechlorination (of the excess free chlorine) by exposure to direct sunlight until no free chlorine remained. This treatment insured that all halogen demand in the water was neutralized. Then Compound 1 and calcium hypochlorite were separately dissolved in identical DFW (buffered to an appropriate pH) solutions to the same final total chlorine concentrations (10 milligrams per liter potential positive chlorine). The solutions in separate flasks, which were stoppered with porous, sterile cotton plugs to allow free exchange with laboratory air, were then held at a constant temperature of 22° C. by means of a controlled water bath for a period of several weeks. Aliquots were withdrawn periodically (at least weekly), and the total positive chlorine remaining was determined in triplicate by standard iodometric titration. […]
The stabilities of 1,3-dibromo-2,2,5,5-tetramethylimidazolidin-4-one (Compound 4) and 1-bromo-3-chloro-2,2,5,5-tetramethylimidazolidin-4-one (Compound 5) in halogen demand-free water (DFW) were determined at 22° C. and pH values of 7.0 and 9.5 using the same procedures as discussed under example 9. Given the instability of Compound 1 at pH 4.5 (example 9), it was deemed unnecessary to test compounds 4 and 5 at that pH. The two compounds were dissolved in DFW buffered to the appropriate pH in separate flasks and held at a temperature of 22° C. by means of a constant temperature bath. The starting concentrations of total potential positive halogen in the two solutions were 22.6 milligrams per liter for Compound 4 and 16.25 milligrams per liter for Compound 5; these concentrations represent the molar equivalents in total potential positive halogen to that used for Compound 1 in example 9. The solutions were analyzed in the manner described in example 9.

[2] = physchem; conditions: for solubility: water, solubility in water
Description: In method (a) 47.4 grams (0.3 mole) of 2,2,5,5-tetramethylimidazolidine-4-thione was dissolved in 1.2 liters of 3 Normal sodium hydroxide solution (3.6 moles) in a 2 liter flask. The flask and its contents were cooled to 5° C. using an ice bath, and chlorine gas was bubbled into the mixture while stirring until the pH of the solution reached 7.0. The temperature of the mixture was not allowed to rise above 10° C. during this process. The N,N'-dichloroimidazolidin-4-one product precipitated as a white solid. Following addition of 800 milliliters of water to the flask, the solid product was recovered by suction filtration. The product was then purified by dissolving it in hexane, allowing the impurities and remaining water to settle, and recovery by evaporation of the volatile hexane layer which was separated from the impurity/water layer. The product yield was 53.9 grams or 85% of that theoretically expected. Elemental analysis of the product (1,3-dichloro-2,2,5,5-tetramethylimidazolidin-4-one) gave the following results: (calculated/found) % carbon 39.82/39.86, % hydrogen 5.73/5.50, % nitrogen 13.27/13.24, and % chlorine 33.59/32.88. […] Analysis of the product by proton NMR and infrared spectroscopy yielded the following results:
5.1 Grams (0.036 mole) of 2,2,5,5-tetramethylimidazolidin-4-one prepared as in example 2 was dissolved in 88 milliliters of 1 Normal sodium hydroxide solution (0.088 mole) in a 250 milliliter flask. While maintaining this mixture at 10° C. or below using an ice bath and stirring, 12.8 grams (0.08 mole) of liquid bromine was added dropwise. The product 1,3-dibromo-2,2,5,5-tetramethylimidazolidin-4-one precipitated from the mixture as a pale yellow solid. The product was recovered by suction filtration and purified by recrystallization from hexane. The product yield was 9.2 grams or 85% of that theoretically expected. Elemental analysis of the product (1,3-dibromo-2,2,5,5-tetramethylimidazolidin-4-one) gave the following results: (calculated/found) % carbon 28.00/27.80, % hydrogen 4.00/4.07, % nitrogen 9.33/9.39, and % bromine 53.33/52.09. […] Analysis of the product by proton NMR and infrared spectroscopy yielded the following results:
6.4 Grams (0.045 mole) of 2,2,5,5-tetramethylimidazolidin-4-one prepared as in example 2 was dissolved in 55 milliliters of 1 Normal sodium hydroxide solution (0.055 mole) in a 250 milliliter flask. While maintaining the reaction mixture at a temperature of 5°-10° C. by use of an ice bath and stirring, 4.0 grams (0.025 mole) of liquid bromine was added dropwise. The reaction mixture was stirred at ice bath temperature for an additional 1 hour and then for 1-2 hours at cold water bath conditions (10°-20° C.). Following cooling the mixture below 10° C. again, 50 milliliters of 1 Normal sodium hydroxide solution (0.05 mole) was added, and chlorine gas was bubbled in while stirring at 5°-10° C. until the pH reached 6-7. The 1-bromo-3-chloro-2,2,5,5-tetramethylimidazolidin-4-one product precipitated as a white solid. The product was recovered by suction filtration and purified by recrystallization from hexane. The product yield was 11.2 grams or 97% of that theoretically expected. Elemental analysis of the product gave the following results: (calculated/found) % carbon 32.88/32.68, % hydrogen 4.70/4.74, % nitrogen 10.96/10.83, % bromine 31.31/33.37, % chlorine 13.89/12.67. The rather high and low found values as compared to the theoretical values for bromine and chlorine, respectively, indicate that the product was contaminated with a small amount of 1,3-dibromo-2,2,5,5-tetramethylimidazolidin-4-one. […] Analysis of the product by proton NMR and infrared spectroscopy yielded the following results: […]

[3] = Hydrolysis equilibrium constant in demand-free water; conditions: pH 7.0, 24°±1° C.
Description: The equilibrium constant for the hydrolysis reaction of 1,3-dichloro-2,2,5,5-tetramethylimidazolidin-4-one to form 1-chloro-2,2,5,5-tetramethylimidazolidin-4-one and free chlorine (Cl^+) was determined at pH 7.0 and 24°±1° C. This was accomplished by preparing a solution of the 1,3-dichloro-2,2,5,5-tetramethylimidazolidin-4-one in demand-free 0.05 molar sodium phosphate buffer (pH 7.0) and allowing the solution to equilibrate while stirring for 1 hour. Then the DPD/FAS technique (as in example 7) was used to determine the free and total chlorine concentrations in the equilibrated solution. The concentration of combined 1,3-dichloro-2,2,5,5-tetramethylimidazolidin-4-one was calculated from the difference between the measured total and free chlorine concentrations. The hydrolysis equilibrium constant was then calculated as the square of the molar free chlorine concentration divided by the molar combined chlorine concentration. For a starting molar total chlorine concentration of 4.441×10^-3 moles per liter, at equilibrium the combined chlorine concentration was 4.428×10^-3 moles per liter, and the free chlorine concentration was 1.269×10^-5 moles per liter. […] For a starting molar total chlorine concentration of 1.764×10^-3 moles per liter, at equilibrium the combined chlorine concentration was 1.759×10^-3 moles per liter, and the free chlorine concentration was 5.360×10^-6 moles per liter. […] The average equilibrium constant for the two separate determinations was thus 2.6±1.0×10^-8.

[4] = Stability in synthetic halogen demand water (SDW); conditions: SDW, 4° C.
Description: A synthetic halogen demand water (SDW) was prepared by mixing the following substances with demand-free water (DFW): 375 milligrams per liter of each of the inorganic salts sodium chloride, potassium chloride, calcium chloride, and magnesium chloride; 50 milligrams per liter of Bentonite clay; 30 milligrams per liter of humic acid; 0.01 percent final concentration of heat-treated horse serum; and 5×10^5 cells per milliliter of heat-killed Saccharomyces cerevisiae yeast cells. The SDW solution was buffered with 0.01 Molar borate/sodium hydroxide to a pH of 9.5 and held at 4° C. during the experiments. The conditions of high ionic strength, turbidity, and organic material, and alkaline pH at low temperature, are viewed as a worst-case scenario for disinfection applications and thus should provide the optimum test of stability for the new compounds.
In separate flasks were dissolved compounds 1, 2, 3, and 5 to a starting concentration of 10 milligrams per liter total potential positive chlorine or its molar equivalent (16.25 milligrams per liter) in total potential positive halogen for Compound 5. Aliquots were withdrawn frequently over a period of more than 90 hours, and the percent positive halogen remaining was determined by standard iodometric titration.

[5] = Stability in demand-free water exposed to direct sunlight; conditions: DFW, direct sunlight, 22-24° C.
Description: The stabilities of compounds 1,5, and free chlorine from calcium hypochlorite (Compound 2) in water exposed to direct sunlight were determined. Each compound at the 10 milligrams per liter total chlorine concentration level (or at the molar equivalent for total halogen for Compound 5) was dissolved in 85 milliliters of demand-free water buffered at pH 7.0 in separate 100 milliliter beakers which were placed in a temperature-controlled water bath (22°-24° C.), and the bath containing the solutions was placed on the roof of the chemistry building at Auburn University exposed to direct sunlight during August 1988. Total potential positive halogen assays were made periodically on aliquots withdrawn over a 10 hour period using the standard iodometric titration technique.

[6] = starting total chlorine 1.764×10^-3 moles per liter
[7] = starting total chlorine 4.441×10^-3 moles per liter

remaining at 23.52 h ([1]; demand-free water, pH 9.5): 91.4%
remaining at 72.24 h ([1]; demand-free water, pH 9.5): 71%
remaining at 168 h ([1]; demand-free water, pH 9.5): 36%
remaining at 336 h ([1]; demand-free water, pH 9.5): 4.8%
SMILES: CC1(C)C(=O)N(Br)C(C)(C)N1Br [Compound 4, 1,3-dibromo-2,2,5,5-tetramethylimidazolidin-4-one]

solubility in water [2]: 0.224 grams in 100 milliliters of water
solubility [2]: 1380 µg/mL (≈ 6.54 mM)
average hydrolysis equilibrium constant ([3]; average of two determinations): 2.6±1.0×10^-8
combined chlorine concentration at equilibrium [3, 6]: 1.759×10^-3 moles per liter
free chlorine concentration at equilibrium [3, 6]: 5.360×10^-6 moles per liter
hydrolysis equilibrium constant [3, 6]: 1.63×10^-8
combined chlorine concentration at equilibrium [3, 7]: 4.428×10^-3 moles per liter
free chlorine concentration at equilibrium [3, 7]: 1.269×10^-5 moles per liter
hydrolysis equilibrium constant [3, 7]: 3.64×10^-8
SMILES: CC1(C)C(=O)N(Cl)C(C)(C)N1Cl [1,3-dichloro-2,2,5,5-tetramethylimidazolidin-4-one]

SMILES: [Ca+2].[O-]Cl.[O-]Cl [Compound 2, calcium hypochlorite, reference compound]
Percent Chlorine Remaining ([1]; pH 4.5 (acetate), 1 week, 10080 min): 91.8%
Percent Chlorine Remaining ([1]; pH 4.5 (acetate), 2 weeks, 20160 min): 86.2%
Percent Chlorine Remaining ([1]; pH 4.5 (acetate), 3 weeks, 30240 min): 80.8%
Percent Chlorine Remaining ([1]; pH 4.5 (acetate), 4 weeks, 40320 min): 76.4%
Percent Chlorine Remaining ([1]; pH 4.5 (acetate), 5 weeks, 50400 min): 71.5%
Percent Chlorine Remaining ([1]; pH 4.5 (acetate), 6.14 weeks, 61891.2 min): 65.0%
Percent Chlorine Remaining ([1]; pH 7.0 (phosphate), 1 week, 10080 min): 91.8%
Percent Chlorine Remaining ([1]; pH 7.0 (phosphate), 2 weeks, 20160 min): 85.0%
Percent Chlorine Remaining ([1]; pH 7.0 (phosphate), 3 weeks, 30240 min): 79.6%
Percent Chlorine Remaining ([1]; pH 7.0 (phosphate), 4 weeks, 40320 min): 70.6%
Percent Chlorine Remaining ([1]; pH 7.0 (phosphate), 5 weeks, 50400 min): 63.4%
Percent Chlorine Remaining ([1]; pH 7.0 (phosphate), 6.14 weeks, 61891.2 min): 54.7%
Percent Chlorine Remaining ([1]; pH 9.5 (borate/NaOH), 1 week, 10080 min): 88.9%
Percent Chlorine Remaining ([1]; pH 9.5 (borate/NaOH), 2 weeks, 20160 min): 79.0%
Percent Chlorine Remaining ([1]; pH 9.5 (borate/NaOH), 3 weeks, 30240 min): 71.2%
Percent Chlorine Remaining ([1]; pH 9.5 (borate/NaOH), 4 weeks, 40320 min): 60.3%
Percent Chlorine Remaining ([1]; pH 9.5 (borate/NaOH), 5 weeks, 50400 min): 50.1%
Percent Chlorine Remaining ([1]; pH 9.5 (borate/NaOH), 6.14 weeks, 61891.2 min): 38.5%
Percent Halogen Remaining ([4]; pH 9.5, 0.5 hrs): 51.5%
Percent Halogen Remaining ([4]; pH 9.5, 1.0 hrs): 46.4%
Percent Halogen Remaining ([4]; pH 9.5, 2.5 hrs): 39.6%
Percent Halogen Remaining ([4]; pH 9.5, 4.2 hrs): 39.6%
Percent Halogen Remaining ([4]; pH 9.5, 7.5 hrs): 36.2%
Percent Halogen Remaining ([4]; pH 9.5, 24.0 hrs): 31.3%
Percent Halogen Remaining ([4]; pH 9.5, 76.5 hrs): 21.5%
Percent Halogen Remaining ([5]; pH 7.0, 3.0 hrs): 26.0%
Percent Halogen Remaining ([5]; pH 7.0, 5.0 hrs): 6.9%
Percent Halogen Remaining ([5]; pH 7.0, 10.0 hrs): 0.0%

solubility in water [2]: 0.193 grams in 100 milliliters of water
solubility [2]: 1020 µg/mL (≈ 3.99 mM)
SMILES: CC1(C)C(=O)N(Cl)C(C)(C)N1Br [1-bromo-3-chloro-2,2,5,5-tetramethylimidazolidin-4-one]

solubility in water [2]: 0.120 grams in 100 milliliters of water
solubility [2]: 720 µg/mL (≈ 2.4 mM)
SMILES: CC1(C)C(=O)N(Br)C(C)(C)N1Br [1,3-dibromo-2,2,5,5-tetramethylimidazolidin-4-one]
